Legend:
[1] = test system: Mper1-luc Rat-1 fibroblasts (P2C4); assay: Cellular Circadian Assay (Mper1-luc reporter period lengthening); type: cell-based; conditions: effective micromolar concentration that induced a 1 hour lengthening of circadian period
From the text: The assay consists of Rat-1 fibroblasts stably expressing an Mper1-luc construct, thus enabling the determination of the rhythmic activation of the Mper1 promoter in living cells by repeatedly estimating luciferase activity by monitoring light-output over several days. The repeated measure format of the assay permits accurate and reproducible assessment of the concentration-dependent effects of CKIε inhibitors on circadian rhythm and provides the nexus for relating CKIε inhibition to circadian period alteration.
Cellular Circadian Assay Experimental Procedures
Stable transfection: Rat-1 fibroblast cultures at 30-50% confluence were co-transfected with vectors containing the Zeocin resistance selectable marker for stable transfection and an mPer-1 promoter-driven luciferase reporter gene. After 24-48 hours, cultures were split onto 96 well plates and maintained in growth media supplemented with 50-100 μg/mL Zeocin (Invitrogen #45-0430) for 10-14 days. Zeocin-resistant stable transfectants were assessed for reporter expression by supplementing growth media with 100 μM luciferin (Promega #E1603) and assaying luciferase activity on a TopCount scintillation counter (Packard Model #C384V00). […] Mper1-luc Rat-1 fibroblasts clone P2C4 was selected for compound testing. […] After synchronization, cultures were rinsed with 100 μL EMEM (Celigro #10-010-CV) for 10 minutes at room temperature. […] Compounds tested for circadian effects were added to CO2-independent media in 0.3% DMSO (final concentration). […] In Vivo luciferase activity was estimated by measuring relative light output on a TopCount scintillation counter (Packard Model #C384V00). Plates were transferred from incubator to reader using an ORCA robotic arm (Beckman Instruments) and SAMI-NT automated scheduling software (Version 3.3; SAGIAN/Beckman Instruments). Data Analysis: Microsoft Excel and XLfit (Version 2.0.9; IDBS) were used to import, manipulate and graph data. Period analysis was performed either by determining the interval between relative light output minima over several days or by Fourier Transform. […] Potency is reported as EC≡t+1h, which is presented as the effective micromolar concentration that induced a 1 hour lengthening of period. The data was analyzed by fitting a hyperbolic curve to the data expressed as period change (y-axis) versus the concentration of test compound (x-axis) in XLfit and the EC[…]t+1h was interpolated from this curve.

[2] = molecular target: T1, casein kinase 1ε (Homo sapiens, UniProt P49674); assay: Casein Kinase Epsilon 33P-ATP Filter Plate Assay; type: biochemical
T1 construct: made in house
T1 sequence (P49674 whole entry): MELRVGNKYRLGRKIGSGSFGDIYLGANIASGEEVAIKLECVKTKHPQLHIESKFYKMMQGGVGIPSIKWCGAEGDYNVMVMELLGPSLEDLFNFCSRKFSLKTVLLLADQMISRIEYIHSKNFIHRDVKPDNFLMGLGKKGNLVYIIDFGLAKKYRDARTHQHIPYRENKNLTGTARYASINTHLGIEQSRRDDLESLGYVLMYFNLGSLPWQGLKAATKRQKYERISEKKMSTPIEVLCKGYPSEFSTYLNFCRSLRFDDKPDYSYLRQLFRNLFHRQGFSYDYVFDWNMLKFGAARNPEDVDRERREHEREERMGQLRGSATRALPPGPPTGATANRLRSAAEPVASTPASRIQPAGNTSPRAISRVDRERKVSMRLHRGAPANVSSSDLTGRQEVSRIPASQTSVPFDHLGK
From the text: Casein Kinase Epsilon ^33P-ATP Filter Plate Assay for Screening CK1 Inhibitors Purpose: This assay measures the effect of compounds to inhibit the phosphorylation of the substrate casein by the enzyme casein kinase 1ε using an in vitro ^33P-ATP filtration assay.
Equipment: • Beckman Biomek 2000 Liquid Handling Robot • Beckman Multimek 96 Automated 96 Channel Pipettor • Millipore Vacuum Manifold Basic Kit # MAVM0960R • Titertek Multidrop Liquid Dispenser • Packard TopCount NXT Liquid Scintillation Counter
Enzyme: • Casein Kinase 1ε final concentration 0.58 mg/ml obtained from fermentation and purification processes performed by Aventis Pharmaceuticals Inc., France. The above are stored as 100 μL aliquots at minus 80° C.
Compounds: • Compounds for testing are supplied as frozen 10 mM compound stock dissolved in 100% DMSO. Assay Conditions:
Final total assay volume per well is equal to 50 μL made up as follows: • 5 μL of diluted compound stock ([…], 0.1, 0.01 or 0.001 μM), • 5 μL of dephosphorylated casein final concentration 0.2 μg/μL, • 20 μL of CK1ε final concentration 3 ng/μL, and • 20 μL of γ-^33P-ATP final concentration 0.02 μCi/μL mixed with cold ATP (10 μM final). Methodology: • 1. 500 mL of fresh assay buffer is made: 50 mM Tris pH 7.5, 10 mM MgCl2, 2 mM DTT and 1 mM EGTA • 2. Compounds to be evaluated are obtained as 10 μL of 10 mM stock dissolved in 100% DMSO. Using a Biomek 2000 liquid handling robot, serial dilutions are made to yield 10, 1, 0.1, 0.01 and 0.001 μM final compound dilutions added as 5 μL additions to Falcon U bottom plates. […] A routine screening assay will consist of 32 compounds, which equals 4 assay plates. • 3. Assay plate maps are set up according to the following pattern
• 4. […] Finally 20 μL […] (0.02 μCi/μL)/10 μM cold ATP are added (equals approximately 2×10^6 CPM per well). • 6. The Falcon U-Bottom assay plate containing the above 50 μL reaction volume is vortexed and then incubated at room temperature for 2 hours. • 7. At the end of 2 hours, the reaction is stopped by the addition of 65 μL of ice cold 2 mM cold ATP (made up in assay buffer) to the assay plates using a Beckman Multimek • 8. At the same time 25 μL 100% ice cold TCA made up in distilled H2O is added to a matching number of Millipore MAPH filter plates. • 9. Using a handheld 8-channel pipettor, 100 μL of the reaction mixture is transferred from the Falcon U-Bottom Plate to the Millipore MAPH filter plates presoaked with TCA. • 10. The Millipore MAPH filter plates are mixed gently and allowed to sit at room temperature for at least 30 minutes to precipitate the proteins. • 11. After 30 minutes the filter plates are placed on a Millipore vacuum manifold and filtered at no more than 8 mm Hg as the MAPH filters tend to “air lock” at higher vacuum settings. • 12. The filter plates are sequentially washed and filtered with 2×150 μL 20% TCA, 2×150 μL 10% TCA and 2×150 μL 5% TCA (total of 6 washes per plate/900 μL per well). • 13. Plates are allowed to dry overnight at room temperature. The next day 40 μL Packard Microscint-20 Scintillation Fluid is added per well using a Titertek Multidrop dispenser; the plates are sealed and counted for 2 minutes/well in a Packard Topcount NXT Scintillation Counter (CPM values/well are captured). Calculation: • 1. Counts Per Minute (CPM) data is captured and imported into a proprietary data calculation and archiving database (Activity Base by IDBS version 5.0). • 2. Column 1 for each plate reflects total phosphorylation activity of the enzyme in the absence of any inhibiting compound and thus represents 100%. Column 12 reflects any nonspecific phosphorylation/retained radioactivity activity in the absence of inhibiting compound and enzyme.

SMILES: NC(=O)c1[nH]c2cccnc2c1Sc1ccc(Cl)cc1 [Ia-6, 3-(4-Chlorophenylsulfanyl)-1H-pyrrolo[3,2-b]pyridine-2-carboxylic acid amide]
- melting point: 266 °C
- Cell Assay ECΔτ+1h [1]: 13.8 µM
- IC50 [2]: 0.491 µM
